The results in this text go back to patent US4640930A, “Naphtho(1,8-bc)-1,5-thiazocinones” (Hoffmann-La Roche Inc., priority 1986, dated 1987).

One assay deals with Guinea Pig Ileum. Kind of assay: Guinea pig ileum assay: inhibition of tonic contraction (K+ challenge) of longitudinal muscle, calcium channel blocking. The format is cell-based. As to conditions: Cavia porcellus; concentration inhibiting tonic contraction of muscle by 50%; 80 mM K+ challenge, 37° C., compound 2 minutes prior. Here is the method:
GUINEA PIG ILEUM ASSAY Male guinea-pigs weighing from 300-400 grams were stunned and bled. The abdomen was opened and 10-15 cm of terminal ileum was carefully removed and cleaned and placed in Tyrode's Solution of the following composition: NaCl (8 g/l), KCl (0.2 g/l), MgCl2 (0.1 g/l.), CaCl2 (0.2 g/l). NaH2 PO4 (0.05 g/l), NaHCO3 (1.0 g/l) and Glucose (1 g/l). The solution was maintained at 37° C. and gassed with 95%O2 and 5%CO2. Portions of the ileum were placed over a glass rod, a shallow incision was made the length of the mesenteric attachment just severing the outer-longitudinal muscle layer. The longitudinal muscle was separated from the underlying circular muscle by gentle dissection (Rang, H. P. Annals of New York Academy of Science, vol. 144, page 756, 1964). The tissue was fixed at one end to a tissue holder, the other end was connected by a thread to a force transducer and suspended in a muscle bath containing Tyrode's Solution maintained at 37° C. and gassed with 95%O2 and 5%CO2. An initial tension of 500 mg was applied and the tissue allowed to equilibrate for 60 minutes prior to the start of the study. During this period the tissue was washed every 16 minutes. Each preparation, at 16 minute intervals, was challenged with KCl sufficient to yield a bath K^+ concentration of 80 mMK for 2 minutes, then washed with fresh solution. The 16 minute interval between K^+ challenges was maintained throughout the study. Upon stabilization of the responses to the K^+ challenge the test compound (potential calcium entry antagonist) was introduced into the bath 2 minutes prior to and during the 2 minute exposure to K^+ after which the bath was cleared and washed with fresh solution. Logarithmically increasing doses (up to 10^-4 M) of the potential antagonist were administered as the study progressed. The measure of a compound's ability to inhibit the tonic contraction of muscle is a measure of its activity as a calcium channel blocking agent.

Assay [1] has as its system Spontaneously Hypertensive (SH) Rat. Kind of assay: Blood pressure lowering in the spontaneously hypertensive (SH) rat. The format is in vivo. The settings on record: oral, male SH rats. The method, then:
BLOOD PRESSURE LOWERING IN THE SPONTANEOUSLY HYPERTENSIVE (SH) RAT
Six male SH rats were used for each test. Body weights were recorded. Six pre-drug control recordings of the systolic blood pressure (mmHg) were measured from the tails of the rats which were unanesthetized and restrained in holders. The rats were previously heated for 5-10 minutes at 32°-34° C. The systolic blood pressure was measured by an occlusion cuff.
The compounds were administered orally to the rats in a composition that included 5% compound and the remainder gum acacia. The blood pressure of the rats was measured over a period of hours following oral administration.
The measure of a compound's ability to decrease blood pressure, is a measure of its activity as an anti-hypertensive agent.

Structures can show the parent of a compound that is named as a salt.

Consider `COc1ccc([C@@H]2Sc3cccc4cccc(c34)N(CCN(C)C)C(=O)[C@H]2OC(C)=O)cc1` (racemic) [OCOCH3 HCl (±)-trans, (±)-trans-3-(acetyloxy)-2,3-dihydro-5-[2-(dimethylamino)ethyl]-2-(4-methoxy-phenyl)-naphtho[1,8-bc]-1,5-thiazocin4(5H)-one hydrochloride], for which the IC50 in the assay on Guinea Pig Ileum was 3 µM.

With `COc1ccc([C@@H]2Sc3cccc4cccc(c34)N(CCN(C)C)C(=O)[C@@H]2O)cc1` (racemic) [OH HCl (±)-cis, (±)-cis-2,3-dihydro-5-[2-(dimethylamino)ethyl]-3-hydroxy-2-(4-methoxyphenyl)naphtho[1,8-bc]-1,5-thiazocin-4(5H)-one hydrochloride], the IC50 in the assay on Guinea Pig Ileum was determined as 4.2 µM.

With `COc1ccc([C@@H]2Sc3cccc4cccc(c34)N(CCN(C)C)C(=O)[C@@H]2OC(C)=O)cc1` (relative stereo) [OCOCH3 HCl (±)-cis, (±)-cis-3-(acetyloxy)-2,3-dihydro-5-[2-dimethylamino)ethyl]-2-(4-methoxyphenyl)naphtho[1,8-bc]-1,5-thiazocin-4(5H)-one hydrochloride], the IC50 with Guinea Pig Ileum amounted to 3.9 µM.

`COc1ccc([C@@H]2Sc3cccc4cccc(c34)N(CCN(C)C)C(=O)[C@@H]2OC(C)=O)cc1.O=C(O)/C=C/C(=O)O` [OCOCH3 fumarate (+)-cis, (+)-cis-3-(acetyloxy)-2,3-dihydro-5-[2-(dimethylamino)ethyl]-2-(4-methoxyphenyl)naphtho[1,8-bc]-1,5-thiazocin-4(5H)-one (E)-2-butenedioate]: the “Systolic Blood Pressure in SH Rat Peak Decrease (Δ mm Hg)” value in assay [1] (unanesthetized, occlusion cuff on tail, peak decrease) is recorded as -66 ± 12 mm Hg. In addition, the “Duration of Effect on blood pressure” value in assay [1] (footnote a) was 1 to 6 h. Besides, the IC50 in the assay on Guinea Pig Ileum is 0.25 µM.

For the molecule `COc1ccc([C@@H]2Sc3cccc4cccc(c34)N(CCN(C)C)C(=O)[C@@H]2O)cc1` [OH HCl (+)-cis, (+)-cis-2,3-dihydro-5-[2-(dimethylamino)ethyl]-3-hydroxy-2-(4-methoxyphenyl)naphtho[1,8-bc]-1,5-thiazocin-4(5H)-one hydrochloride], the IC50 in the assay with Guinea Pig Ileum came out at 3.1 µM.

One may read the IC50 as the point on the concentration scale where inhibition reaches its midpoint.
